Entries after “also recorded” stand apart in the source; their conditions may differ.
Assays:
Mcl-1/Puma interaction = biological target: T1, Mcl-1/Puma interaction (Homo sapiens, UniProt Q07820); assay: BRET assay, Mcl-1/Puma interaction; type: cell-based; details: BRET in Hela cells, 10 μM, 16 hours
T1 construct: expressed in transfected cells; host or cells: HeLa cells
Method: (§1) Hela cells were seeded on 6-well plates and transfected with 200 ng/well of plasmid pRLuc-Bax, pRLuc-Puma or pRLuc-Noxa coding for BRET donors and 1 µg/well of peYFP-Bcl-xL or peYFP-Mcl-1 coding for BRET acceptors (or with pCMV-Bcl-xL or pCMV-Mcl-1 for control). Twenty-four hours after transfection, cells were trypsinized and re-seeded into white 96 well plate flat bottom, incubated for another day, and then treated with drugs for 16 hours at 10 μM. Light emission at 485 nm and 530 nm was measured consecutively using the Mithras fluorescence-luminescence detector LB 940 (Berthold) after adding the luciferase substrate, coelenterazine H (Uptima) at a final concentration of 5 μM. BRET ratios were calculated as described [Terrillon et al. (2003) Mol Endocrinol 17, 677-691, Vo et al. (2012) Eur J Med Chem., 286-93].

Noxa/Mcl-1 interaction = biological target: T2, Noxa/Mcl-1 interaction (Homo sapiens, UniProt Q07820); assay: BRET assay, Noxa/Mcl-1 interaction; type: cell-based; details: BRET in Hela cells, 10 μM, 16 hours
T2 construct: expressed in transfected cells; host or cells: HeLa cells
Method: as §1

[1] = test system: IGROV1-R10 chemoresistant ovarian cancer cells; assay: Pyridoclax / ABT-737 association, apoptotic cell death; type: cell-based; details: IGROV1-R10, single agent
Method: (§2) FIG. 4 represents the effect of the association of Pyridoclax with ABT-737 on chemoresistant ovarian cancer cells IGROV1-R10 (top) and SKOV3 (bottom). Cells were concomitantly (A, E) or sequentially (B) exposed to 25 μM Pyridoclax and 5 μM ABT-737, and cellular effects were assessed either longitudinally (A, B, E) or after 24 h (C, D, F). [A, B, E] real time cellular activity assessed by impedancmetry (xCELLigence technology), after concomitant exposure (A, E) or sequential exposure (B; 24 h Pyridoclax, then ABT-737). [C]: Cellular morphology and DNA content histograms after a 24 h concomitant exposure. [D and F]: PARP and caspase 3 cleavage after a 24 h concomitant exposure.
(§3) Adherent and floating cells were pooled, washed with 1×PBS and centrifuged at 200 g for 5 min before staining by Annexin V, propidium iodide or both, as recommended by the manufacturer (Roche Diagnostic, Indianapolis, USA). Briefly, 100 μl of Annexin V—Flit or propidium iodide or both were added on the cells pellet (10^6 cells) and incubated 15 minutes at room temperature in obscurity. 500 μl of sample buffer was then added on the suspensions that were thereafter analyzed using a Gallios flow cytometer (Beckman Coulter, Roissy, France) and cell cycle distribution was determined using Kaluza acquisition software (Beckman Coulter).
(§4) Cells were rinsed with ice-cold PBS, suspended in a lysis buffer [RIPA:NaCl 150 mM, Tris (pH 8) 50 mM, Triton X100 1%, PMSF 4 mM, EDTA 5 mM, NaF 10 mM, NaPPi 10 mM, Na3OV4 1 mM, aprotinin 0.5 μl/ml and 4.6 ml ultra pure water] and incubated on ice for 30 minutes. Lysates were collected after centrifugation (13200 g, 10 min, 4° C.) and protein concentrations were determined using the Bradford assay (Bio-Rad, Hercules, USA). 20 μg of protein were separated by SDS-PAGE on a 4-12% gradient polyacrylamide gel (Invitrogen, Cergy-Pontoise, France) and transferred to Hybond-PVDF membranes (Amersham, Orsay, France). […]

[2] = test system: SKOV3 chemoresistant ovarian cancer cells; assay: as above; type: cell-based, human; details: SKOV3, single agent
Method: as §2, §3, §4

T1 sequence (Q07820 whole entry): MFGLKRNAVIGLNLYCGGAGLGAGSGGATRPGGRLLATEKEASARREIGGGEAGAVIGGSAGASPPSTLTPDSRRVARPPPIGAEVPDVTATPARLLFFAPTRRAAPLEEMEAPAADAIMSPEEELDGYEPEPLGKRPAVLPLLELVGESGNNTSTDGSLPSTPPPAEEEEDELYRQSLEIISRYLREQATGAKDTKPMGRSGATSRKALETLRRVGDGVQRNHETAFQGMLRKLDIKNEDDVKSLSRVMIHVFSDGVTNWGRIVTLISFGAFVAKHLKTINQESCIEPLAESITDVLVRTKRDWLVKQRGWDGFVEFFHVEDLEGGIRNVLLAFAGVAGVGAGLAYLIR
T2 sequence (Q07820 whole entry): as above

effect on Noxa/Mcl-1 interaction (Noxa/Mcl-1 interaction): not able to modify these interactions
SMILES: CN(C)CC[C@H](CSc1ccccc1)Nc1ccc(S(=O)(=O)NC(=O)c2ccc(N3CCN(Cc4ccccc4-c4ccc(Cl)cc4)CC3)cc2)cc1[N+](=O)[O-] [ABT-737, 4-[4-[[2-(4-chlorophenyl)phenyl]methyl]piperazin-1-yl]-N-[4-[[(2R)-4-(dimethylamino)-1-phenylsulfanylbutan-2-yl]amino]-3-nitrophenyl]sulfonylbenzamide, reference compound]
effect on Mcl-1/Puma interaction (Mcl-1/Puma interaction): not able to modify these interactions; also recorded: not able to modify this interaction
cell death as single agent [1]: neither ABT-737 nor Pyridoclax induced cell death as single agents
cell death as single agent [2]: neither ABT-737 nor Pyridoclax induced cell death as single agents

Reference: patent US10307410B2, “Mcl-1 modulating compounds for cancer treatment” (CENTRE REGIONAL DE LUTTE CONTRE LE CANCER FRANCOIS BACLESSE, priority 2014, dated 2019)
